Measurements reported in patent publication US11051515B2, “3-acyl-benzamides and their use as herbicides” (Bayer Aktiengesellschaft, priority 2017, dated 2021).

How the values were obtained:
[1] = test system: ALOMY; test: Pre-emergence action against ALOMY; format: in vivo, Alopecurus myosuroides; conditions: dosage 320 g/ha; pre-emergence; scored visually after 3 weeks vs untreated controls; 100% = plants have died, 0% = like control plants
Outline: (§1)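 Seeds sown in sandy loam in wood-fiber pots and covered with soil. Greenhouse growth; visual damage scored after 3 weeks versus untreated controls (100% = dead, 0% = like control).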

[2] = test system: AVEFA; test: Pre-emergence action against AVEFA; format: in vivo, Avena fatua; conditions: dosage 320 g/ha, scored visually after 3 weeks vs untreated controls
Outline: as §1

[3] = test system: CYPES; test: Pre-emergence action against CYPES; format: in vivo, Cyperus esculentus; conditions: pre-emergence, dosage 320 g/ha, scored visually after 3 weeks vs untreated controls
Outline: as §1

[4] = test system: ECHCG; test: Pre-emergence action against ECHCG; format: in vivo, Echinochloa crus-galli; conditions: pre-emergence, dosage 320 g/ha, scored visually after 3 weeks vs untreated controls
Outline: as §1

[5] = test system: LOLRI; test: Pre-emergence action against LOLRI; format: in vivo, Lolium rigidum; conditions: dosage 320 g/ha, scored visually after 3 weeks vs untreated controls
Outline: as §1

[6] = test system: SETVI; test: Pre-emergence action against SETVI; format: in vivo, Setaria viridis; conditions: pre-emergence, dosage 320 g/ha, scored visually after 3 weeks vs untreated controls
Outline: as §1

[7] = test system: ABUTH; test: Pre-emergence action against ABUTH; format: in vivo, Abutilon theophrasti; conditions: pre-emergence, dosage 320 g/ha, scored visually after 3 weeks vs untreated controls
Outline: as §1

[8] = test system: AMARE; test: Pre-emergence action against AMARE; format: in vivo, Amaranthus retroflexus; conditions: pre-emergence, dosage 320 g/ha, scored visually after 3 weeks vs untreated controls
Outline: as §1

[9] = test system: MATIN; test: Pre-emergence action against MATIN; format: in vivo, Matricaria inodora; conditions: Dosage 320 g/ha, pre-emergence
Outline: as §1

[10] = test system: PHBPU; test: Pre-emergence action against PHBPU; format: in vivo, Pharbitis purpurea; conditions: Dosage 320 g/ha, pre-emergence
Outline: as §1

[11] = test system: POLCO; test: Pre-emergence action against POLCO; format: in vivo, Polygonum convolvulus; conditions: Dosage 320 g/ha, pre-emergence
Outline: as §1

[12] = test system: STEME; test: Pre-emergence action against STEME; format: in vivo, Stellaria media; conditions: Dosage 320 g/ha, pre-emergence
Outline: as §1

[13] = test system: VIOTR; test: Pre-emergence action against VIOTR; format: in vivo, Viola tricolor; conditions: Dosage 320 g/ha, pre-emergence
Outline: as §1

[14] = test system: VERPE; test: Pre-emergence action against VERPE; format: in vivo, Veronica persica; conditions: Dosage 320 g/ha, pre-emergence
Outline: as §1

[15] = test system: ALOMY; test: Post-emergence action against ALOMY; format: in vivo, Alopecurus myosuroides; conditions: Dosage 80 g/ha, post-emergence
Outline: (§2)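 Weeds grown in sandy loam in greenhouse, treated at one-leaf stage (2–3 weeks after sowing) with WP or EC formulations sprayed as aqueous suspension/emulsion at 600 to […] water with 0.2% wetting agent. Visual rating after about 3 weeks versus untreated controls, as % herbicidal action (100% = plants dead, 0% = like control).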

[16] = test system: ECHCG; test: Post-emergence action against ECHCG; format: in vivo, Echinochloa crus-galli; conditions: post-emergence, dosage 80 g/ha, visual assessment about 3 weeks after treatment vs untreated controls
Outline: as §2

[17] = test system: LOLRI; test: Post-emergence action against LOLRI; format: in vivo, Lolium rigidum; conditions: dosage 80 g/ha, visual assessment about 3 weeks after treatment vs untreated controls
Experimental: Seeds of monocotyledonous and dicotyledonous weed and crop plants are laid out in sandy loam soil in wood-fiber pots, covered with soil and cultivated in a greenhouse under good growth conditions. 2 to 3 weeks after sowing, the test plants are treated at the one-leaf stage. The compounds of the invention, formulated in the form of wettable powders (WP) or as emulsion concentrates (EC), are then sprayed onto the green parts of the plants in the form of an aqueous suspension or emulsion at a water application rate equating to […], with addition of 0.2% wetting agent. After the test plants have been left to stand in the greenhouse under optimal growth conditions for about 3 weeks, the action of the preparations is assessed visually in comparison to untreated controls (herbicidal action in percent (%): 100% activity=the plants have died, 0% activity=like control plants). […] At the same time, inventive compounds leave Gramineae crops such as barley, wheat, rye, millet/Sorghum, corn or rice virtually undamaged when applied post-emergence, even at high active ingredient dosages. In addition, some substances are also harmless to dicotyledonous crops such as soya, cotton, oilseed rape, sugar beet or potatoes. Some of the compounds according to the invention have high selectivity and are therefore suitable for controlling unwanted vegetation in agricultural crops by the post-emergence method. The data of Tables B18 to B34 below illustrate, in an exemplary manner, the […] herbicidal action of the compounds according to the invention, the herbicidal activity being stated in percent.

[18] = test system: SETVI; test: Post-emergence action against SETVI; format: in vivo, Setaria viridis; conditions: post-emergence, dosage 80 g/ha, visual assessment about 3 weeks after treatment vs untreated controls
Outline: as §2

[19] = test system: ABUTH; test: Post-emergence action against ABUTH; format: in vivo, Abutilon theophrasti; conditions: post-emergence, dosage 80 g/ha, visual assessment about 3 weeks after treatment vs untreated controls
Outline: as §2

[20] = test system: AMARE; test: Post-emergence action against AMARE; format: in vivo, Amaranthus retroflexus; conditions: post-emergence, dosage 80 g/ha, visual assessment about 3 weeks after treatment vs untreated controls
Outline: as §2

[21] = test system: MATIN; test: Post-emergence action against MATIN; format: in vivo, Matricaria inodora; conditions: post-emergence, dosage 80 g/ha, visual assessment about 3 weeks after treatment vs untreated controls
Outline: as §2

[22] = test system: PHBPU; test: Post-emergence action against PHBPU; format: in vivo, Pharbitis purpurea; conditions: post-emergence, dosage 80 g/ha
Outline: as §2

[23] = test system: STEME; test: Post-emergence action against STEME; format: in vivo, Stellaria media; conditions: post-emergence, dosage 80 g/ha
Outline: as §2

[24] = test system: VIOTR; test: Post-emergence action against VIOTR; format: in vivo, Viola tricolor; conditions: post-emergence, dosage 80 g/ha
Outline: as §2

[25] = test system: VERPE; test: Post-emergence action against VERPE; format: in vivo, Veronica persica; conditions: dosage 80 g/ha
Outline: as §2

[26] = test system: AVEFA; test: Post-emergence action against AVEFA; format: in vivo, Avena fatua; conditions: post-emergence, dosage 80 g/ha, visual assessment about 3 weeks after treatment vs untreated controls
Outline: as §2

[27] = test system: CYPES; test: Post-emergence action against CYPES; format: in vivo, Cyperus esculentus; conditions: post-emergence, dosage 80 g/ha, visual assessment about 3 weeks after treatment vs untreated controls
Outline: as §2

Structure (SMILES)	Pre-emergence action against ALOMY (herbicidal activity in percent) [1] [%]	Pre-emergence action against AVEFA (herbicidal activity) [2] [%]	Pre-emergence action against CYPES (herbicidal activity) [3] [%]	Pre-emergence action against ECHCG (herbicidal activity) [4] [%]	Pre-emergence action against LOLRI (herbicidal activity) [5] [%]	SETVI (Table B8, pre-emergence herbicidal activity) [6] [%]	Pre-emergence action against ABUTH (herbicidal activity) [7] [%]	Pre-emergence action against AMARE (herbicidal activity) [8] [%]	Pre-emergence action against MATIN [9] [%]	Pre-emergence action against PHBPU [10] [%]	Pre-emergence action against POLCO [11] [%]	Pre-emergence action against STEME [12] [%]	Pre-emergence action against VIOTR [13] [%]	Pre-emergence action against VERPE [14] [%]	Post-emergence action against ECHCG (herbicidal action in percent) [16] [%]	Post-emergence action against LOLRI (herbicidal action in percent) [17] [%]	Post-emergence action against SETVI (herbicidal action in percent) [18] [%]	Post-emergence action against ABUTH (herbicidal action in percent) [19] [%]	Post-emergence action against AMARE (herbicidal action in percent) [20] [%]	Post-emergence action against PHBPU [22]	further results
COCC(=O)c1c(C(F)(F)F)ccc(C(=O)Nc2nnnn2C)c1Cl [1-144]	100	100	100	100	100	100	100	100	100	100	80	100	100	100	90	80	100	100	100	100	Post-emergence action against ALOMY [15]: 90%; Post-emergence action against MATIN (herbicidal action in percent) [21]: 90%; Post-emergence action against STEME [23]: 100; Post-emergence action against VIOTR [24]: 100; Post-emergence action against VERPE [25]: 90
Cn1nnnc1NC(=O)c1ccc(C(F)(F)F)c(C(=O)CCl)c1Cl [1-145]	100	100	100	100	100	100	100	100	100	100	100	100	100	100	100	80	100	100	100	100	Post-emergence action against ALOMY [15]: 90%; Post-emergence action against AVEFA (herbicidal action in percent) [26]: 90%; Post-emergence action against CYPES (herbicidal action in percent) [27]: 100%; Post-emergence action against STEME [23]: 100; Post-emergence action against VIOTR [24]: 100; Post-emergence action against VERPE [25]: 100
CCn1nnnc1NC(=O)c1ccc(C(F)(F)F)c(C(=O)C2(C)CC2)c1Cl [2-147]	90	90	80	100	90	100	100	100	100			100	100	80	80	80	80	90	80	90	Post-emergence action against AVEFA (herbicidal action in percent) [26]: 80%; Post-emergence action against MATIN (herbicidal action in percent) [21]: 100%
CCn1nnnc1NC(=O)c1ccc(C(F)(F)F)c(C(=O)C2CC2C)c1Cl (stereo not drawn) [2-148]	90	90	90	100	90	100	100	100	100	90	90	90	100	100	90	80	90	90	90	90	Post-emergence action against ALOMY [15]: 90%; Post-emergence action against MATIN (herbicidal action in percent) [21]: 90%; Post-emergence action against STEME [23]: 90; Post-emergence action against VIOTR [24]: 90; Post-emergence action against VERPE [25]: 90
